According to US5132291A, “Antivirals and methods for increasing the antiviral activity of AZT” (priority 1989, dated 1992):
Read-outs that look alike come from different tables or passages of the source.

How the values were obtained:
[1] = test system: SAH hydrolase; assay: SAH hydrolase inhibition; format: biochemical
Method: The effect of incubation time and AICA riboside concentration on SAH hydrolase activity was determined as follows. Five samples of SAH hydrolase were incubated at the following AICA riboside concentrations: 0, 10, 25, 50 and 100 μM. The incubation buffer consisted of 25 mM potassium phosphate pH 7.0, 1 mM EDTA, 1 mM, DTT and 0.04% BSA. The total enzyme added to incubation mixture was 10 μg. At indicated times, 10 μl of sample was withdrawn and assayed in the following assay system: 25 mM potassium phosphate, pH 7.0, 40 mM DL-Homocysteine, 1 mM EDTA, 1 mM DTT, 10 μM EHNA, 0.1% BSA and 10 μM U-^14 C Adenosine (590 m Ci/mmole). The reaction was stopped by adding 15 μl of 30% TCA. The samples were then centrifuged and 15 μl were removed and applied to Kodak cellulose 13254 TLC plates along with SAH and adenosine markers. The plates were then developed in a solvent system of 1-butanol:methanol:H2 O:ammonium hydroxide (60:20:20:2). The adenosine and S-adenosyl homocysteine were visualized under UV light and the spots were cut from the plate. Radioactivity of the spots was determined by liquid scintillation spectrometry. From a plot of the reciprocal of Kinactivation vs. 1/AICA riboside concentration the values of Ki (X-intercept) and Kmax (Y-intercept), were determined (FIG. 10(b)).

[2] = test system: peripheral blood macrophages; conditions: cited from earlier work
[3] = test system: HIV; assay: HIV syncitial forming assay using SupT-1 cells; format: cell-based
Method: The assay was performed following the procedure described in Example Three except that SupT-1 cells were used. Using the SupT-1 cells, the medium was not changed at day 5 post-infection and the syncitia were counted at day 5 post-infection at 40X. The results are plotted in FIGS. 5, 6(b), and 7.

[4] = test system: HIV-1; assay: HIV syncitial forming assay using CEM-SS cells; format: cell-based; conditions: AZT 0.01 μM and 0.1 μM, 24 hour preincubation before HIV infection
From the text: The following cytomorphologic infectivity bioassay was used to characterize antiviral activity against HIV-1. In the following assay a single infectious unit of virus infects a single cell and initiates a focal expression of that infection, i.e., a syncitium. Since a single infectious unit leads to a discrete response, a linear relationship exists between the number of virally-induced cytopathic effects and the first order of virus concentration. Application of this procedure in assays for virus inactivation allows for evaluation of the candidate antiviral agent.
CEM-SS (syncitium-sensitive Leu 3a-positive CEM cell line) cells were grown in RPMI 1640 cell culture media (Irvine Scientific) supplemented with 10% heat-inactivated fetal bovine serum (Gemini Bioproducts) and 1% […] glutamine (Gibco). Log-phase cells were split 1:2 with the growth medium the day prior to setting up the assay to standardize plating conditions and to assure a population of logarithmically growing cells. Ninety-six-well plates (Costar) were pretreated with 50 μl of 50 μg/ml poly-1-lysine (MW=295,000 Sigma) "PLL") and were left at room temperature for 60 minutes. Residual PLL was removed with two washes of PBS. The plates were stored in the incubator until used.
On the day of the assay, the cells were counted and enough cells were harvested to plate each well with 5.0×10^4 cells per well in a volume of 200 μl (or 20 ml of […] was appropriate for each 96-well microtitre plate).
The cells were plated out on the PLL pre-treated microtitre plates at 5.0×10^4 cells/well in a volume of 200 μl. After allowing attachment for 30 minutes at 37° C. and 5% CO2, the antiviral agent(s) were added in the noted amounts and the treated plates were pre-incubated for 24 hours.
The HIV-1 virus stock (isolated from infected H-9 cells) was diluted in growth medium to yield 100 SFU (syncytial-forming units) per well. Diluted HIV-1 virus, 20 μl, was added to appropriate wells. All the plates were then incubated for 5 days at 37° C. and 5% CO2. On day 5 post-infection, the cells were given a 100 μl media change. […]

[5] = cited from earlier work
[6] = test system: N2 virus (replication-defective murine leukemia virus construct); assay: N2 colony resistance assay on 208F rat fibroblasts; format: cell-based; conditions: 0.01 μM AZT compared with 500 μM AICA riboside
From the text: As described in Example Two, several retroviral assay systems were utilized to test the antiviral activity of various purine nucleoside compounds. One assay system employed a replication-defective murine leukemia virus construct "N2") containing a selectable marker (the neomycin resistance gene). The N2 virus construct is present in the producer or "helper" cell line also called N2 which contains a second retroviral construct that encodes for the production of the retrovirus proteins necessary for packaging and which can, therefore, psuedotype the N2 vector into an infective amphotrophic murine retrovirus. […]
(§1) In this colony-forming bioassay for the characterization of antiviral compounds against retroviruses, a replication-defective retroviral vector construct having the ability to confer neomycin-resistance (U937/BAG or N2) is psuedotyped, infects a single cell, and under neomycin selection, allows the recipient cell to form a colony. Since each infection yields a neomycin-resistant cell capable of producing a discrete group of cells, colonies can be counted, resulting in a linear relationship between the number of colonies and the first order of virus concentration. […]
Neomycin selection (500 μg/ml) was begun the next day and continued for eight days post-infection, changing the media three times per week. […] All colonies with 50 or more aggregate cells were counted.

[7] = test system: BAG vector pseudotyped by MA (amphotrophic murine leukemia virus); assay: U937/BAG+MA colony resistance assay titered on 208F rat fibroblasts; format: cell-based; conditions: 0.01 μM AZT
Method: A second, similar assay system was utilized in which a human macrophage line (U937) carrying the BAG retroviral vector construct (having neomycin resistance and beta-galactosidase marker genes), Cepko, PNAS, Vol. 84, p. 156-160 (1987), was infected with MA (amphotrophic MLV [murine leukemia virus]). MA was used to pseudotype the replication-defective BAG vector, which was then titered on 208F cells. According to this assay, the results of which are shown in FIG. 1c, 0.01 μM AZT and 500 μM AICA riboside were both effective against murine retroviruses. […]
as §1
After drying, the plates were stained with 2 ml of 1:20 Glemsa (Sigma) for 1 hour. […] All colonies containing 50 or more cells were scored.

[8] = test system: AIDS virus; conditions: cited from earlier work

NC(=O)c1nc[nH]c1N [AICA]
inhibition of SAH hydrolase [1]: very potent inhibitors
inhibition of SAH hydrolase ([1]; even at a concentration as low as 10 μM): potent inhibitors

Cc1cn([C@H]2C[C@H](N=[N+]=[N-])[C@@H](CO)O2)c(=O)[nH]c1=O [AZT, 3'azido-3'deoxythymidine]
accumulation of AZT nucleotides in macrophages as compared to CEM [2]: nine-fold lower
effectiveness against the AIDS virus (prevention of syncitial formation) ([3]; AZT 0.01 μM-1 μM, 7200 min): less than 100%
inhibition at 10 µM ([3]; Human immunodeficiency virus 1, SUP-T1, 120 h, read-out: effectiveness against the AIDS virus (prevention of syncitial formation)): 100%
antiviral effect (number of syncitia) [4]: antiviral effects
patients with macrocytic anemia ([5]; CD4 (T4) lymphocyte count ≤200/mm^3): up to 45%
patients with granulocytopenia ([5]; CD4 count >200/mm^3): up to 40%
patients with granulocytopenia ([5]; CD4 count ≤200/mm^3): up to 55%
antiviral activity (neomycin-resistant colonies) [6]: somewhat better antiviral activity than 500 μM AICA riboside
effectiveness against murine retroviruses [7]: effective

NC(=O)c1ncn([C@@H]2O[C@H](CO)[C@@H](O)[C@H]2O)n1 [ribavirin]
decrease of phosphorylation of AZT to the mono-, di-, and triphosphate forms ([8]; AIDS infected and uninfected cells): approximately a factor of ten
effect on effectiveness of AZT against the AIDS virus ([8]; peripheral blood lymphocytes and H9 cells): reduced the effectiveness of AZT
